{
  "source": "patent US6743429B2",
  "about": "(Sherbrooke University, priority 1999, dated 2004)",
  "key": {"[1]": {"tested_on": "sheep", "test": "Haemodynamic parameters and baseline SRL after inhaled administration in sheep", "format": "in vivo", "conditions": "inhaled increasing doses (CGRP 0.1, 0.25, 0.5 and 1.0 mg/2 ml)", "text": "(§1) Eighteen sheep with a mean weight of 35 kg (range: 24 to 52 kg) were used for this study. […] Ten of these animals were defined as non-allergic and 8 as allergic, based on the absence or presence of both early and late airway responses after a standard inhalation challenge with Ascaris suum antigen. All sheep were allowed a 4-week recovery period after the allergen challenge before experimentation began. For each of the procedures hereafter presented, the unsedated animals were restrained on a standard shopping cart in the prone position and their heads were immobilized. […]\nBriefly, pleural pressure was estimated via the esophageal balloon catheter (filled with 1 ml of air), which was positioned 5 to 10 cm from the gastroesophageal junction. […] Lateral pressure in the trachea was measured with a sidehole catheter (inner diameter=2.5 mm) advanced through and positioned distal to the tip of the endotracheal tube. […] The transpulmonary pressure and flow signals were recorded on a Hewlett Packard (model 7754B, Mass. USA) multichannel recorder, which was linked to a PC 386 Personal Computer (IBM Equipment, Montreal, Quebec) for online calculation of mean RL by dividing the change in transpulmonary pressure by the change in flow at mid-tidal volume (Vt) (obtained by digital integration). […]"}, "[2]": {"tested_on": "allergic sheep", "test": "Metacholine-induced non-specific airway responsiveness in allergic sheep", "format": "in vivo", "conditions": "inhaled 0.5 mg in 2 ml PBS", "text": "as §1\n(§2) The techniques used for investigating airway mechanics were again well-validated and standardized procedures (as is usually the case with large mammals). […] Lateral pressure in the trachea was measured with a sidehole catheter (inner diameter=2.5 mm) advanced through and positioned distal to the tip of the endotracheal tube. […] The transpulmonary pressure and flow signals were recorded on a Hewlett Packard (model 7754B, Mass. USA) multichannel recorder, which was linked to a PC 386 Personal Computer (IBM Equipment, Montreal, Quebec) for online calculation of mean RL by dividing the change in transpulmonary pressure by the change in flow at mid-tidal volume (Vt) (obtained by digital integration). […]"}, "[3]": {"tested_on": "allergic sheep", "test": "Ascaris suum antigen-induced early and late increases in pulmonary resistance in sheep", "format": "in vivo", "text": "as §1, §2"}, "[4]": {"tested_on": "allergic guinea pigs", "test": "Allergen (ovalbumin)-induced bronchospasm (PIP) in allergic guinea pigs", "format": "in vivo, guinea pig", "conditions": "CGRP receptor antagonist given 5 minutes before the allergen challenge", "protocol": "Guinea pigs were anaesthetized with xylazine (20 mg/kg, i.m.) and ketamine hydrochloride (130 mg/kg, i.m.). The jugular vein and trachea were cannulated and animals were mechanically ventilated with a constant-volume rodent respirator (Havard, model 683) delivering a tidal volume of 5.5 ml/kg at a frequency of 60 cycles/min via the tracheal cannula. Airway resistance was measured by the overflow technique according to well-validated and standardized procedures. Briefly, ventilation overflow (i.e., the pulmonary insufflation pressure or PIP), was recorded at the side arm of the tracheal cannula by means of a differential pressure transducer (Gould P23 ID) connected to a Grass polygraph (model 7D). Airway responsiveness was assessed by measuring the changes in PIP following i.v. injections of the agonists. Changes in PIP, which were taken as an index of changed airway resistance, were measured and expressed in mm of mercury (mm Hg). Each agonist was injected through the jugular vein cannula in a volume of 100 μl followed by a washout with 200 μl of heparinized-saline (100 units/ml).\nThe resulting increase in PIP (bronchoconstriction) was compared to responses obtained in control animals i.e. in allergic guinea pigs, which received only saline solution 5 minutes before the i.v. injection of ovalbumin. […]"}},
  "note": "Where no end group is shown, it is not given here.",
  "data": [
    {"molecule": "CC(C)(C)NCC(O)c1ccc(O)c(CO)c1", "note": "(stereo not drawn) [salbutamol]", "values": [
      {"measurement": "heart rate", "setting": "[1]", "value": "increase in heart rate"},
      {"measurement": "mean arterial blood pressure (MAP)", "setting": "[1]", "value": "hypotension"},
      {"measurement": "protection against metacholine-induced increase in airway resistance", "setting": "[2]", "value": 65, "unit": "%"},
      {"measurement": "effect on late phase bronchoconstriction to Ascaris suum antigen", "setting": "[3]; aerosol 0.5 mg in 2 ml PBS pretreatment", "value": "does not affect"},
      {"measurement": "reduction of the peak of the early phase response to Ascaris suum antigen", "setting": "[3]; aerosol 0.5 mg in 2 ml PBS, 20 minutes before antigen challenge", "value": 45, "unit": "%"}
    ]},
    {"molecule": "hCGRP(8-37) (VTHRLAGLLSRSGGVVKNNFVPTNVGSKAF; ends and bridges not checked; UniProt P06881 90-119, looked up, fragment) [a CGRP receptor antagonist]", "values": [
      {"measurement": "magnitude of the allergen-induced bronchospasm versus untreated animals", "setting": "[4]", "value": "significant increase"}
    ]}
  ]
}
